Laboratory results as given in BindingDB's records for patent US11530198 (Vyera Pharmaceuticals, 2022).

Assays:
[1] = target: T1, Dihydrofolate reductase (Homo sapiens, UniProt P00374); test: Not found
T1 sequence (P00374 whole entry): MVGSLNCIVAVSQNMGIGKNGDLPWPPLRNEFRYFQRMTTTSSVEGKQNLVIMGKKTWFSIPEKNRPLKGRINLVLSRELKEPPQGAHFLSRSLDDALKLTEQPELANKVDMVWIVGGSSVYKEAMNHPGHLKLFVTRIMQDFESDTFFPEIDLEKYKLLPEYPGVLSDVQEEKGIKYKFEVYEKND

[2] = target: Bifunctional dihydrofolate reductase-thymidylate synthase (Leishmania major, UniProt P07382); test: Not found
Sequence of Bifunctional dihydrofolate reductase-thymidylate synthase (P07382 whole entry): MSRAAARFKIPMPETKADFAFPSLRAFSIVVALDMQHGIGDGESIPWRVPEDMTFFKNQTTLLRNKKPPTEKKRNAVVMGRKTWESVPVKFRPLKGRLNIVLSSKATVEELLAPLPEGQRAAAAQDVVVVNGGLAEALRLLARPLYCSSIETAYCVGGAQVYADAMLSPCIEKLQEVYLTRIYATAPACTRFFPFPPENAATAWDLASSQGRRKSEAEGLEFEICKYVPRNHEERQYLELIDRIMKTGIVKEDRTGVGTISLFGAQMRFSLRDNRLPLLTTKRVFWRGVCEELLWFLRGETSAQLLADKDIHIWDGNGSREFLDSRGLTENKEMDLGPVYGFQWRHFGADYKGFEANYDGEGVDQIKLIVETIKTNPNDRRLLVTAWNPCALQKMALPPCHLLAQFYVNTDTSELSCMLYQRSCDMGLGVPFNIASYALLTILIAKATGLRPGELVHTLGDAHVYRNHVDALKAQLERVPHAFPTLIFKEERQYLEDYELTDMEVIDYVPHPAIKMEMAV

`Nc1ncc(N2CCN(c3ccccc3-c3ccccc3)CC2)c(N)n1` [US11530198, Example 12] was tested, and the IC50 [1] was 214 nM and the IC50 [2] was 7.41 nM.
